Earlier results in US20210213093A1, “COMPOSITIONS AND METHODS FOR ACTIVATING CELLULAR SIGNALING PATHWAYS” (LifeVantage Corporation, priority 2020, published 2021).

Conditions: background statement, no test described

## O=C(O)CCCC[C@@H]1CCSS1 (racemic) [Lipoic acid, lipoic acid]
  antioxidant power relative to vitamin E and vitamin C combined: 400 times
